{"source": "ChEMBL document CHEMBL5465560", "about": "“Selectivity Literature for EUbOPEN Chemogenomic Library” (2024)", "key": {"[1]": {"biological_target": "T1, Phosphatidylinositol 3-kinase C2 domain-containing subunit gamma (Homo sapiens) (UniProt O75747)", "T1 sequence (whole entry)": "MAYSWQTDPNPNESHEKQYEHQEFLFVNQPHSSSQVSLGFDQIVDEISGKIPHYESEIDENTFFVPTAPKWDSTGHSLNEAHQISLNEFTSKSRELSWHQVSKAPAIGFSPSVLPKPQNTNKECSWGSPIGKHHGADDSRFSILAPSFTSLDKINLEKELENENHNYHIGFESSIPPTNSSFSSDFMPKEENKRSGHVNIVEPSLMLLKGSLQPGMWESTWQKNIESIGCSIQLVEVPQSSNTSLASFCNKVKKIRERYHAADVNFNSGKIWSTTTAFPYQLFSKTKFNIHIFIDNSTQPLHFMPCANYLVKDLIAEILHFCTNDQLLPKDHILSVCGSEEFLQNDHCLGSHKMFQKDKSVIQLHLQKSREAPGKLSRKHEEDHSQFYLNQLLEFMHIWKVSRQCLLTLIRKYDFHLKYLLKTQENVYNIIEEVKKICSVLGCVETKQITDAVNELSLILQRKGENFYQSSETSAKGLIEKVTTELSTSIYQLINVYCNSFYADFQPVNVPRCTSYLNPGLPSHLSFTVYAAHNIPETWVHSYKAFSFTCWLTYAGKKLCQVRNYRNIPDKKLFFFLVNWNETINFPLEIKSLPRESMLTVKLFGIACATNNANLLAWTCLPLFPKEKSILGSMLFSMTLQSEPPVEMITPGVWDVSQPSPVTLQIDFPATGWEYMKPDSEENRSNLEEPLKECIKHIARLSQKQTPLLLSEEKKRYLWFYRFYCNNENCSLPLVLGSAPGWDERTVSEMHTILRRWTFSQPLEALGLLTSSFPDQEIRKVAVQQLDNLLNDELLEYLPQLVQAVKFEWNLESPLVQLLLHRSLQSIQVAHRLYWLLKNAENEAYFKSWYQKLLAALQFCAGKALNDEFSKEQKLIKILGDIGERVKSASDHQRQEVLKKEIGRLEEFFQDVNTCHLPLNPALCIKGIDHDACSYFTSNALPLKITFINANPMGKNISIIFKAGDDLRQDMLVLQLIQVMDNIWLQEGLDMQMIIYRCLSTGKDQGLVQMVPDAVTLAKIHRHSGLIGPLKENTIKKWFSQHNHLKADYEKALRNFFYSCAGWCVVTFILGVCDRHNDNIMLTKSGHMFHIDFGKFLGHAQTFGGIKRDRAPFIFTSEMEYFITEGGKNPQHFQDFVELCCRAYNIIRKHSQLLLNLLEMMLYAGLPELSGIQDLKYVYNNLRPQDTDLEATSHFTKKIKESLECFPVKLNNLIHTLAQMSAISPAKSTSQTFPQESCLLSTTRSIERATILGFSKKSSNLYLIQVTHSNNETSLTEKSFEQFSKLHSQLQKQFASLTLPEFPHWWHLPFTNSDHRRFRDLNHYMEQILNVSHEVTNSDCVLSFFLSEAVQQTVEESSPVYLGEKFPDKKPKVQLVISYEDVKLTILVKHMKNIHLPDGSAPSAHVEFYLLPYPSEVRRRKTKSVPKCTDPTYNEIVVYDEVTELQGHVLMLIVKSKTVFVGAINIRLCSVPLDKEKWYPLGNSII", "assay": "Selectivity interaction (KinomeScan (DiscoverX)) EUB0000655a PIK3C2G", "conditions": "at 10 µM"}, "[2]": {"biological_target": "Proto-oncogene tyrosine-protein kinase Src (Homo sapiens, UniProt P12931)", "sequence (P12931 2-536 limits assumed)": "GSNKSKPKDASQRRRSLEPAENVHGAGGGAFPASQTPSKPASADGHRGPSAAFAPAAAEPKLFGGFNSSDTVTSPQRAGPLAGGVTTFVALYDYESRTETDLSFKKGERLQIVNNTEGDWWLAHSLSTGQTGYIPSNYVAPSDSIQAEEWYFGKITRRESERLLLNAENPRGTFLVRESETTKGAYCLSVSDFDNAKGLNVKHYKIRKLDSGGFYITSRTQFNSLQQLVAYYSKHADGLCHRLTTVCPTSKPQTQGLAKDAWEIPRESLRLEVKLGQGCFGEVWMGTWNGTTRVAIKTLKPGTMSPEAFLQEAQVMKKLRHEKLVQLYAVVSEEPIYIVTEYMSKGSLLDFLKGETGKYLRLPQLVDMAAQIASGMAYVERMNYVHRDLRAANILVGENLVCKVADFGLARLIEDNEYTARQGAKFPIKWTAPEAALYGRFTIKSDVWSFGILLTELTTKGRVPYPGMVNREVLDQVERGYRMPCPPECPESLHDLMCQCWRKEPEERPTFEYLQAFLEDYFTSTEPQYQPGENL", "assay": "Selectivity interaction (KinomeScan (DiscoverX)) EUB0000655a SRC", "conditions": "at 10 µM"}, "[3]": {"biological_target": "Tyrosine-protein kinase ABL1 (Homo sapiens, UniProt P00519)", "sequence (P00519 whole entry)": "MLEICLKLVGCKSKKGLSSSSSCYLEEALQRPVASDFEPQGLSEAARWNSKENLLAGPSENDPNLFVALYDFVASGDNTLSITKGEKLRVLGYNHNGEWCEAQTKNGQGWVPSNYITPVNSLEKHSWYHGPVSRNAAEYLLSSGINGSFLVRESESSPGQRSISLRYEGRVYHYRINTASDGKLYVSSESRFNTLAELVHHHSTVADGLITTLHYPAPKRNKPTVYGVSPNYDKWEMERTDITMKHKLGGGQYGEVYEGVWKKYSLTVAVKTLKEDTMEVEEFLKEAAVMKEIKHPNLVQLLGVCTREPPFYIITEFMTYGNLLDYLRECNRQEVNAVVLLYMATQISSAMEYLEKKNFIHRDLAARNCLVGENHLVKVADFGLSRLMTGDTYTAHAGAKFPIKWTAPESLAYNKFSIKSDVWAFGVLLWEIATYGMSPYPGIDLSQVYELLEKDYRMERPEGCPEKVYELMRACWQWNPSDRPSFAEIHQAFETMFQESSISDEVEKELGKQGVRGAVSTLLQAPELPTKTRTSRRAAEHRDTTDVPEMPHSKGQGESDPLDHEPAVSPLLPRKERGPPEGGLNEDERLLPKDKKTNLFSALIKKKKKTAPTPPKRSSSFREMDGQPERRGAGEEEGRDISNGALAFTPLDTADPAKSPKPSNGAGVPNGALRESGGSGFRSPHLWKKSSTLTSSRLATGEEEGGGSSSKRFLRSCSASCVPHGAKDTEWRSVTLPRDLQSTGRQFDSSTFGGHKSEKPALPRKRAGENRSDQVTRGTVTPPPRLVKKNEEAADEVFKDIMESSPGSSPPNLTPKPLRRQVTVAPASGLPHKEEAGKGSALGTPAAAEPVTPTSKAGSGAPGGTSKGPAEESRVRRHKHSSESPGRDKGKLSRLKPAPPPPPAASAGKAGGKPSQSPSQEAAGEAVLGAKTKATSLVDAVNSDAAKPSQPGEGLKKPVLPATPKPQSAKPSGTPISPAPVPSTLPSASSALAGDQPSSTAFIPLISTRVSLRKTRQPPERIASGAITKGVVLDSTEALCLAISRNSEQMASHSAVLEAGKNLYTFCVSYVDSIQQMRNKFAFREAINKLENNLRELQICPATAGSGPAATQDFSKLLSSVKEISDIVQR", "assay": "Selectivity interaction (Kinase panel (Invitrogen)) EUB0000639a ABL1", "conditions": "at 200 nM"}, "[4]": {"biological_target": "SRSF protein kinase 2 (Homo sapiens) (UniProt P78362)", "sequence (P78362 whole entry, looked up)": "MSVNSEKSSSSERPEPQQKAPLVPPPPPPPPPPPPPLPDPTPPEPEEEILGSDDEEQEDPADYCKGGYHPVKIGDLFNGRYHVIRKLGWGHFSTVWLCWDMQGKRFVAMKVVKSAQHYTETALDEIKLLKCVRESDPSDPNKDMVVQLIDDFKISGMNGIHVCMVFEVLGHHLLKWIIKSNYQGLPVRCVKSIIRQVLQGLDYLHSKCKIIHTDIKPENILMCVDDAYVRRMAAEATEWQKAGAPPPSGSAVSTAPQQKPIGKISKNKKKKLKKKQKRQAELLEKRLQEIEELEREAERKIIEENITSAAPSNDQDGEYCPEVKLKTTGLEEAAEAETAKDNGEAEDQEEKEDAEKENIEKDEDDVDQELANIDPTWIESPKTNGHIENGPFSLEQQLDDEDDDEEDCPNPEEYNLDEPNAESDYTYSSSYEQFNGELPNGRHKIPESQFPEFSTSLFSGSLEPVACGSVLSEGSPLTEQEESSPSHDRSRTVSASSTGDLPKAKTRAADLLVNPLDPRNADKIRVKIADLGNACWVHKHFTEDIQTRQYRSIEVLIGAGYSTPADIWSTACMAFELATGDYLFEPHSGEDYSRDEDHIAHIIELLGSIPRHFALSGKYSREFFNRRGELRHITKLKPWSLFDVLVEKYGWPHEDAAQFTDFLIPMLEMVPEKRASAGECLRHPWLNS", "assay": "Selectivity interaction (KinomeScan (DiscoverX)) EUB0000695a SRPK2", "conditions": "at 100 nM"}, "[5]": {"biological_target": "T2, Serine/threonine-protein kinase TAO1 (Homo sapiens) (UniProt Q7L7X3)", "T2 sequence (whole entry)": "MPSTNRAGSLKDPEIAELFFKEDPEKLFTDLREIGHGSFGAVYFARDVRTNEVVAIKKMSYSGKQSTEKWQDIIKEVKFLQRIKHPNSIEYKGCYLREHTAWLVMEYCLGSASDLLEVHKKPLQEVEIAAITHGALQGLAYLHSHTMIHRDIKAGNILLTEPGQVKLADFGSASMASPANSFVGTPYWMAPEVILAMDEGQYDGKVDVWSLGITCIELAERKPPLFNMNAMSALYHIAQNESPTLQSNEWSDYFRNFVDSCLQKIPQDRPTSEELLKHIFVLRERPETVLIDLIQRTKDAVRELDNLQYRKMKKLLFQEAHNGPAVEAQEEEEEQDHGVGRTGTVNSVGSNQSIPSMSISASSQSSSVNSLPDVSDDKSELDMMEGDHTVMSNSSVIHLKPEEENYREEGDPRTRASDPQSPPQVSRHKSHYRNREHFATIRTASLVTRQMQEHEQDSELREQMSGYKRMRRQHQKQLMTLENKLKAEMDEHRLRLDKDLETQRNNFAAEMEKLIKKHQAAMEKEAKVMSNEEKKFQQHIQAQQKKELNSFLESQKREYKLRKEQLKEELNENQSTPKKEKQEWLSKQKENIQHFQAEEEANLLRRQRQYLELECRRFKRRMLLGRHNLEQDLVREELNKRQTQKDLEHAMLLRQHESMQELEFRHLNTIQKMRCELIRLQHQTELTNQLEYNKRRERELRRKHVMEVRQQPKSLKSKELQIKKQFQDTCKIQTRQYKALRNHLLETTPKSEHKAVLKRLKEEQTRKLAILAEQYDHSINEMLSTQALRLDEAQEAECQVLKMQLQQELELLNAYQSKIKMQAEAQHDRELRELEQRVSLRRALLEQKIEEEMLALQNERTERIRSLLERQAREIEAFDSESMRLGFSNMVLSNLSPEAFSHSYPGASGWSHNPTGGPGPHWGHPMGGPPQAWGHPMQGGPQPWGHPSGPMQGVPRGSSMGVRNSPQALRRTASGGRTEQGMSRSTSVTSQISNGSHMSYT", "assay": "Selectivity interaction (KinomeScan (DiscoverX)) EUB0001619a TAOK1", "conditions": "at 1 µM"}}}
{"smiles": "CN(C)CCOc1ccc(-c2nc(-c3ccncc3)c(-c3ccc4c(c3)CC/C4=N\\O)[nH]2)cc1", "values": [{"measurement": "% of control", "setting": "[1]", "result": 55, "unit": "%"}, {"measurement": "% of control", "setting": "[2]", "result": 77, "unit": "%"}]}
{"smiles": "CC[C@@H]1[C@H](F)C(=O)N[C@@H]1COc1nccc2cc(C(N)=O)c(OC)cc12", "note": "[ZIMLOVISERTIB]", "values": [{"measurement": "% of inhibition", "setting": "[3]", "result": 1.34, "unit": "%"}]}
{"smiles": "Cc1cc(F)c(C(=O)Nc2cccc(-c3nncn3C(C)C)n2)cc1-n1cnc(C2CC2)c1", "values": [{"measurement": "% of control", "setting": "[4]", "result": 100, "unit": "%"}]}
{"smiles": "N#Cc1cccc(-c2c[nH]c3ncnc(N4CCOCC4)c23)c1", "values": [{"measurement": "% of control", "setting": "[5]", "result": 6.4, "unit": "%"}]}
